Source: the supplement of paper PMC4862054

What was measured:
Settings in all cases: incubation time: 72 h
[1] = tested on: MDA-MB-468; experiment: normalised response (% of control), CellTiter-Glo; higher = more viable cells (100 = DMSO, 0 = benzethonium chloride kill control)
Method: (§1)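 DSRT, 72 h incubation, CellTox Green / CellTiter-Glo readout. Signal is normalised to DMSO and benzethonium chloride controls. Value is the normalised response at the highest dose.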

[2] = tested on: CAL-120; experiment: as above
Method: as §1

[3] = tested on: HCC1937; experiment: as above
Method: as §1

[4] = tested on: HCC1599; experiment: as above
Method: as §1

[5] = tested on: MCF-10A; experiment: as above
Method: as §1

[6] = tested on: BT-549; experiment: as above
Method: as §1

[7] = tested on: DU-4475; experiment: as above
Method: as §1

[8] = tested on: HCC1143; experiment: as above
Method: as §1

[9] = tested on: MFM-223; experiment: as above
Method: as §1

[10] = tested on: MDA-MB-436; experiment: as above
Method: as §1

[11] = tested on: HDQ-P1; experiment: as above
Method: as §1

[12] = tested on: BT-474; experiment: as above
Method: as §1

[13] = tested on: MDA-MB-453; experiment: as above
Method: as §1

[14] = tested on: Hs578T; experiment: as above
Method: as §1

[15] = tested on: SK-BR-3; experiment: as above
Method: as §1

[16] = tested on: CAL-148; experiment: as above
Method: as §1

[17] = tested on: MDA-MB-231; experiment: as above
Method: as §1

[18] = tested on: CAL-51; experiment: as above
Method: as §1

[19] = tested on: CAL-85-1; experiment: as above
Method: as §1

[20] = tested on: DU-4475; experiment: normalised viability (% of control), CellTiter-Blue; higher = more viable cells (about 100 = DMSO control)
Method: (§2)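 DSRT, CellTiter-Blue viability, 72 h incubation. Signal is normalised to DMSO and benzethonium chloride controls. Value is the normalised response at dose 9.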

[21] = tested on: MDA-MB-453; experiment: as above
Method: as §2

Row | Compound | normalised response [1] [%] | normalised response [2] [%] | normalised response [3] [%] | normalised response [4] [%] | normalised response [5] [%] | normalised response [6] [%] | normalised response [7] [%] | normalised response [8] [%] | normalised response [9] [%] | normalised response [10] [%] | normalised response [11] [%] | normalised response [12] [%] | normalised response [13] [%] | normalised response [14] [%] | normalised response [15] [%] | normalised response [16] [%] | normalised response [17] [%] | normalised response [18] [%] | normalised response [19] [%] | normalised viability [20] [%] | normalised viability [21] [%]
1 | C[C@]12CC[C@@H]3c4ccc(O)cc4C[C@@H](CCCCCCCCC[S+]([O-])CCCC(F)(F)C(F)(F)F)[C@H]3[C@@H]1CC[C@@H]2O (some centres not stated) [Fulvestrant] (1000 nM) | 96 | 105 | 94 | 103 | 101 | 99.3 | 110 | 106 | 99.3 | 105 | 101 | 99 | 95.6 | 103 | 104 | 104 | 98.9 | 124 | 95.4 | – | –
2 | Cn1c(CCCC(=O)O)nc2cc(N(CCCl)CCCl)ccc21 [Bendamustine] (10000 nM) | 116 | 108 | 108 | 96.6 | 114 | 101 | 101 | 111 | 106 | 105 | 113 | 99.6 | 120 | 103 | 105 | 110 | 109 | 132 | 107 | 78.6 | 121
3 | CCC1(c2ccc(N)cc2)CCC(=O)NC1=O (configuration not stated) [Aminoglutethimide] (10000 nM) | 97.3 | 109 | 94.5 | 108 | 101 | 98.1 | 101 | 97.4 | 97.8 | 102 | 102 | 105 | 101 | 95.1 | 97.2 | 108 | 103 | 145 | 106 | 97.9 | 81.6
4 | Oc1nc(-c2ccc(C(F)(F)F)cc2)nc2c1CSCC2 [XAV-939] (10000 nM) | 92.1 | 92.8 | 89.7 | 80.6 | 84.5 | 90.5 | 87.3 | 91.4 | 89.4 | 91.8 | 86.7 | 73 | 81.7 | 95.9 | 84.5 | 94.4 | 74.5 | 66.6 | 95.8 | 100 | 71.5
5 | O=P1(NCCCl)OCCCN1CCCl (configuration not stated) [Ifosfamide] (10000 nM) | 93.7 | 96.3 | 96.5 | 110 | 91.6 | 99.3 | 87.1 | 96.8 | 90 | 92.5 | 94 | 90.3 | 94.5 | 98.7 | 93.1 | 86.7 | 90.5 | 101 | 96.3 | 85.1 | 106
6 | Clc1ccc(Nc2nnc(Cc3ccncc3)c3ccccc23)cc1 [Vatalanib] (10000 nM) | 75.2 | 104 | 96 | 91.5 | 110 | 95.5 | 95.2 | 98.3 | 110 | 109 | 98.4 | 94.5 | 90.3 | 106 | 95.5 | 105 | 101 | 115 | 106 | 102 | 91.1
7 | CO[C@H]1/C=C\C=C(/C)C(=O)NC2=CC(=O)C(NCCN(C)C)=C(C[C@@H](C)C[C@H](OC)[C@H](O)[C@@H](C)/C=C(\C)[C@@H]1OC(N)=O)C2=O [Alvespimycin] (1000 nM) | 34.2 | 47.8 | 21.6 | 58.8 | 15.4 | 39.5 | 0.05 | 33.1 | 39.2 | 44.9 | 22.4 | 28 | 28.1 | 35.4 | 36 | 26.3 | 19 | 16.2 | 18.1 | -0.26 | 3.62
8 | C[C@@H](Oc1cc(-c2cnn(C3CCNCC3)c2)cnc1N)c1c(Cl)ccc(F)c1Cl [Crizotinib] (1000 nM) | 88.1 | 104 | 101 | 100 | 102 | 93.1 | 103 | 102 | 97.4 | 102 | 90.7 | 84.9 | 92.2 | 95.9 | 104 | 99.3 | 83.9 | 108 | 92.7 | – | –
9 | Cc1ccc(C(=O)N(CCCN)[C@@H](c2oc3cc(Cl)ccc3c(=O)c2Cc2ccccc2)C(C)C)cc1 (100 nM) | 101 | 103 | 95.5 | 97.5 | 96.8 | 99.6 | 92.8 | 96 | 97.2 | 88.3 | 104 | 95.6 | 91.6 | 100 | 91.9 | 88.9 | 93 | 72.3 | 97.8 | – | –
10 | N.N.[Cl][Pt][Cl] [Cisplatin] (1000 nM) | 105 | 105 | 106 | 101 | 94 | 101 | 94.7 | 103 | 99.9 | 100 | 95.3 | 94 | 106 | 100 | 92.3 | 96.9 | 96.3 | 87.5 | 104 | – | –
